In one assay the test system is HSV-1. As to conditions: for Log TCID50/100 ul: preliminary. The method, then:
Experiments: 10 μL of virus stock was mixed with 100% saturated Ca(OH)2 (Final Ca(OH)2 concentration 99%) and incubated for different lengths of time. Then the mixture was diluted and the viable number of virus (Log TCID) was measured.
99% saturated Ca(OH)2 was used to treat 2 viruses using different incubation times (5 min to 1 hr).

The next assay deals with Aspergillus niger(#9642). The conditions noted are these: 24 hr, very spotty growth, not yet a confluence lawn, other replicates patchy lawn.

Read-outs that look alike come from different tables or passages of the source.

As for `[Ca+2].[OH-].[OH-]` [99% saturated Ca(OH)2, calcium hydroxide], in the assay with HSV-1 (HSV-1, in 1 hr), the log kill is on record as more than 3.5 log. The “Log TCID50/100 ul” value in the assay on HSV-1 (HSV-1, incubation 0 min) is given as 6.5 Log TCID50/100 ul; in the assay on HSV-1 (HSV-1, incubation 5 min), 6 Log TCID50/100 ul; in the assay with HSV-1 (HSV-1, incubation 10 min), 5.5 Log TCID50/100 ul; in the assay with HSV-1 (HSV-1, incubation 15 min), 3.5 Log TCID50/100 ul; with HSV-1 (HSV-1, incubation 30 min) it was 3 Log TCID50/100 ul; in the assay with HSV-1 (HSV-1, incubation 60 min), less than 3 Log TCID50/100 ul.
`[Ca+2].[OH-].[OH-]` [Ca(OH)2 paste, calcium hydroxide]: the “Zone of Inhibition” value with Aspergillus niger(#9642) (paste volume 0.2 ml) was “—, ~35≠, — mm”; with Aspergillus niger(#9642) (paste volume 0.3 ml), “—, ~34≠, — mm”.

These data come from patent US20160044927A1, “Disinfectant Formulation Comprising Calcium Hydroxide and Sodium Hypochlorite” (priority 2012, published 2016).
